Reference: ChEMBL document CHEMBL3813676, “2-Benzoyl-6-benzylidenecyclohexanone analogs as potent dual inhibitors of acetylcholinesterase and butyrylcholinesterase” (Bioorg Med Chem, 2016)
The source made the active and inactive calls. No cut-off for these calls is given here.

How the values were obtained:
[1] = biological target: Acetylcholinesterase (Electrophorus electricus) (UniProt O42275); assay: Inhibition of electric eel AChE preincubated for 15 mins at 10 uM followed by addition of acetylthiocholine iodide as substrate measured after 30 mins by Ellman's microplate assay
[2] = biological target: Cholinesterase (Equus caballus) (UniProt P81908); assay: Inhibition of equine serum BChE preincubated for 15 mins at 10 uM followed by addition of S-butyrylthiocholine iodide as substrate measured after 30 mins by Ellman's microplate assay
Acetylcholinesterase [3] = biological target: T1, Acetylcholinesterase (Electrophorus electricus, UniProt O42275)
Description: Inhibition of electric eel AChE preincubated for 15 mins followed by addition of acetylthiocholine iodide as substrate measured after 30 mins by Ellman's microplate assay

Cholinesterase [4] = biological target: T2, Cholinesterase (Equus caballus, UniProt P81908)
Description: Inhibition of equine serum BChE preincubated for 15 mins followed by addition of S-butyrylthiocholine iodide as substrate measured after 30 mins by Ellman's microplate assay

Cholinesterase [5] = biological target: T2, Cholinesterase; assay: Mixed type inhibition of equine serum BChE preincubated for 15 mins followed by addition of S-butyrylthiocholine iodide as substrate measured after 30 mins by Lineweaver-Burk double reciprocal plot analysis
Acetylcholinesterase [6] = biological target: T1, Acetylcholinesterase; assay: Mixed type inhibition of electric eel AChE preincubated for 15 mins followed by addition of acetylthiocholine iodide as substrate measured after 30 mins by Lineweaver-Burk double reciprocal plot analysis

Sequence of Acetylcholinesterase (Electrophorus electricus) (O42275 24-633 limits assumed): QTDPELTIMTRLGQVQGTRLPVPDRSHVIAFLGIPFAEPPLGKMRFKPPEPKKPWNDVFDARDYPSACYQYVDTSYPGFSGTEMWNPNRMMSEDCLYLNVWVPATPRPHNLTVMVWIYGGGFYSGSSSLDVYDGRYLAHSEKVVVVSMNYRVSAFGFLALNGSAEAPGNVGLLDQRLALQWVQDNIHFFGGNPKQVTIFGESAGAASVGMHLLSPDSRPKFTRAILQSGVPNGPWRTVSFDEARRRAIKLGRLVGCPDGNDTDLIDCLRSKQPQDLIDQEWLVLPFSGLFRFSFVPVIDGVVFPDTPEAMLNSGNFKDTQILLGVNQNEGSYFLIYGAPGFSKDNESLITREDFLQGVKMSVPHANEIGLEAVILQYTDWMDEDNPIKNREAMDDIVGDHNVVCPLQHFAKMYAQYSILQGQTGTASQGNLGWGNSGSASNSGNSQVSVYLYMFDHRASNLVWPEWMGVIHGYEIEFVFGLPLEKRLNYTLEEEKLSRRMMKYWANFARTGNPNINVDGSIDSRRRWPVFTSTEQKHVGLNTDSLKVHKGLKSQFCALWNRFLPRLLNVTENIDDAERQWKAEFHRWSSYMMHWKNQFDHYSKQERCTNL
T1 sequence (O42275 whole entry): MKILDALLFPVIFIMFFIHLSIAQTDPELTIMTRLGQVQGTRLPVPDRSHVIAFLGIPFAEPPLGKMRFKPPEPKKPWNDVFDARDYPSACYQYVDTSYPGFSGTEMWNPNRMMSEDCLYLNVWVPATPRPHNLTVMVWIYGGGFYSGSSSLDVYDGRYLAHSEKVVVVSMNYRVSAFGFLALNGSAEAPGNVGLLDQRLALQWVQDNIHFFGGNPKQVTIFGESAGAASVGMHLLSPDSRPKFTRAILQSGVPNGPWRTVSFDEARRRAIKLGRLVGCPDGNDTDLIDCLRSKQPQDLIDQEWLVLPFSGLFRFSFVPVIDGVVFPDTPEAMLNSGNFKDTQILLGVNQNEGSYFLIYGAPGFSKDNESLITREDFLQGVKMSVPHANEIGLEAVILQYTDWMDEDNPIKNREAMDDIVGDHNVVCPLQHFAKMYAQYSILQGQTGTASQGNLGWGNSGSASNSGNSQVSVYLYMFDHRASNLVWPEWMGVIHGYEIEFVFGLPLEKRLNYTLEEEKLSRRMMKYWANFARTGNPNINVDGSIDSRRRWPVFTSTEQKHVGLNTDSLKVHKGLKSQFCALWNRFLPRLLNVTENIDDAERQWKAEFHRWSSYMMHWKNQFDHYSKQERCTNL
T2 sequence (P81908 whole entry): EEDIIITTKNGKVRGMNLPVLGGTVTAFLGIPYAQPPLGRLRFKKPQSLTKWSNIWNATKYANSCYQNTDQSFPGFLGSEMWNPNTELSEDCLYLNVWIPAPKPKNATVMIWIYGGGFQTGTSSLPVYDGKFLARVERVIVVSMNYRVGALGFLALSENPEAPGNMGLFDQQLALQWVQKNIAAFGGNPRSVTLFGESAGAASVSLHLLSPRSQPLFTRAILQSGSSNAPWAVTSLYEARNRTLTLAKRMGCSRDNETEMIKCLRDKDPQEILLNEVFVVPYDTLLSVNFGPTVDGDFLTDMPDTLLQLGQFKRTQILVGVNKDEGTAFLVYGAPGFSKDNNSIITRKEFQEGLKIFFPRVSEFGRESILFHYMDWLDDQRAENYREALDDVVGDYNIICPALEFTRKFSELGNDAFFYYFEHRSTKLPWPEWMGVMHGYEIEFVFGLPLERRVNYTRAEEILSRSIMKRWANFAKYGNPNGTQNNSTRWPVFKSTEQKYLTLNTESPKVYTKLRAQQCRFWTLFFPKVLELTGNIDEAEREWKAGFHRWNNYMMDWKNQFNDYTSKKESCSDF
Sequence of Cholinesterase (Equus caballus) (P81908 whole entry): as above

| Structure (SMILES) | inhibition [1] | inhibition [2] | IC50 (Acetylcholinesterase [3]) [µM] | IC50 (Cholinesterase [4]) [µM] | Ki (Cholinesterase [5]) [µM] | Ki (Acetylcholinesterase [6]) [µM] |
| --- | --- | --- | --- | --- | --- | --- |
| COc1ccc(/C=C2\CCCC(C(=O)c3ccccc3)=C2O)cc1 | inactive | inactive | – | – | – | – |
| O=C(C1=C(O)/C(=C/c2ccccc2Br)CCC1)c1ccccc1 | Active | inactive | 8.4 | – | – | – |
| O=C(C1=C(O)/C(=C/c2cccc(O)c2)CCC1)c1ccccc1 | inactive | inactive | – | – | – | – |
| O=C(C1=C(O)/C(=C/c2ccc(Cl)cc2Cl)CCC1)c1ccccc1 | Active | inactive | 5.4 | – | – | – |
| O=C(C1=C(O)/C(=C/c2ccc(O)c(Cl)c2)CCC1)c1ccccc1 | inactive | Active | – | 10.6 | – | – |
| O=C(C1=C(O)/C(=C/c2ccc(Br)c(Br)c2)CCC1)c1ccccc1 | Active | inactive | 9 | – | – | – |
| O=C(C1=C(O)/C(=C/c2ccc(OCCN3CCCC3)cc2)CCC1)c1ccccc1 | Active | Active | 2 | 2.3 | – | – |
| O=C(C1=C(O)/C(=C/c2ccccc2Cl)CCC1)c1ccccc1 | inactive | inactive | 8.2 | – | – | – |
| O=C(C1=C(O)/C(=C/c2ccc(F)cc2)CCC1)c1ccccc1 | Active | inactive | 6.6 | – | – | – |
| COc1cc(/C=C2\CCCC(C(=O)c3ccccc3)=C2O)ccc1O | inactive | inactive | – | – | – | – |
| O=C(C1=C(O)/C(=C/c2cccc(OCCN3CCCC3)c2)CCC1)c1ccccc1 | Active | Active | 3.5 | 0.6 | 0.2 | – |
| O=C(C1=C(O)/C(=C/c2ccc3ccccc3c2)CCC1)c1ccccc1 | Active | inactive | 8.3 | – | – | – |
| O=C(C1=C(O)/C(=C/c2ccccc2)CCC1)c1ccccc1 | inactive | inactive | – | – | – | – |
| O=C(C1=C(O)/C(=C/c2ccccc2F)CCC1)c1ccccc1 | Active | inactive | 6.6 | – | – | – |
| COc1ccc(/C=C2\CCCC(C(=O)c3ccccc3)=C2O)cc1O | inactive | inactive | – | – | – | – |
| O=C(C1=C(O)/C(=C/c2cccc(Cc3ccccc3)c2)CCC1)c1ccccc1 | Active | inactive | 7.8 | – | – | – |
| O=C(C1=C(O)/C(=C/c2cccc(Cl)c2)CCC1)c1ccccc1 | inactive | inactive | – | – | – | – |
| COc1ccc(/C=C2\CCCC(C(=O)c3ccccc3)=C2O)cc1OC | inactive | inactive | – | – | – | – |
| Cc1ccc(/C=C2\CCCC(C(=O)c3ccccc3)=C2O)cc1 | Active | inactive | 8.5 | – | – | – |
| O=C(C1=C(O)/C(=C/c2ccc(OCCN3CCCCC3)cc2)CCC1)c1ccccc1 | Active | Active | 1.6 | 2.7 | – | 1.9 |
| O=C(C1=C(O)/C(=C/c2ccc(Cc3ccccc3)cc2)CCC1)c1ccccc1 | Active | inactive | 8.4 | – | – | – |

| Structure (SMILES) | inhibition [1] | inhibition [2] | IC50 (Acetylcholinesterase [3]) [µM] | IC50 (Cholinesterase [4]) [µM] | Ki (Cholinesterase [5]) [µM] | Ki (Acetylcholinesterase [6]) [µM] |
| --- | --- | --- | --- | --- | --- | --- |
| O=C(C1=C(O)/C(=C/c2ccc(O)cc2)CCC1)c1ccccc1 | inactive | inactive | – | – | – | – |
| COc1cccc(/C=C2\CCCC(C(=O)c3ccccc3)=C2O)c1 | Active | inactive | 7.4 | – | – | – |
| O=C(C1=C(O)/C(=C/c2cccc3ccccc23)CCC1)c1ccccc1 | Active | inactive | 7.6 | – | – | – |
| O=C(C1=C(O)/C(=C/c2ccc(Cl)c(Cl)c2)CCC1)c1ccccc1 | Active | inactive | 9.8 | – | – | – |
| COc1cccc(/C=C2\CCCC(C(=O)c3ccccc3)=C2O)c1OC | inactive | inactive | – | – | – | – |
| O=C(C1=C(O)/C(=C/c2cccc(OCCN3CCCCC3)c2)CCC1)c1ccccc1 | Active | Active | 3.1 | 1.4 | – | – |
| O=C(C1=C(O)/C(=C/c2cccc(F)c2)CCC1)c1ccccc1 | Active | inactive | 9.7 | – | – | – |
| O=C(C1=C(O)/C(=C/c2ccc(O)c(O)c2)CCC1)c1ccccc1 | inactive | Active | – | 6.5 | – | – |
| O=C(C1=C(O)/C(=C/c2ccc(Br)cc2)CCC1)c1ccccc1 | Active | inactive | 8.7 | – | – | – |
| COc1cc(/C=C2\CCCC(C(=O)c3ccccc3)=C2O)cc(OC)c1OC | inactive | inactive | – | – | – | – |
| O=C(C1=C(O)/C(=C/c2ccc(Cl)cc2)CCC1)c1ccccc1 | Active | inactive | 7.6 | – | – | – |
| COc1ccc(OC)c(/C=C2\CCCC(C(=O)c3ccccc3)=C2O)c1 | inactive | inactive | – | – | – | – |
| Cc1cccc(/C=C2\CCCC(C(=O)c3ccccc3)=C2O)c1 | Active | inactive | 8.6 | – | – | – |
| O=C(C1=C(O)/C(=C/c2ccc(F)c(F)c2)CCC1)c1ccccc1 | Active | inactive | 8.7 | – | – | – |
| COc1ccc(/C=C2\CCCC(C(=O)c3ccccc3)=C2O)c(OC)c1OC | inactive | inactive | – | – | – | – |
| COc1ccccc1/C=C1\CCCC(C(=O)c2ccccc2)=C1O | inactive | inactive | – | – | – | – |
| O=C(C1=C(O)/C(=C/c2cccc(Cl)c2Cl)CCC1)c1ccccc1 | Active | inactive | 5.9 | – | – | – |
| Cc1ccc(/C=C2\CCCC(C(=O)c3ccccc3)=C2O)s1 | Active | inactive | 5.9 | – | – | – |
| O=C(C1=C(O)/C(=C/c2cccs2)CCC1)c1ccccc1 | Active | inactive | 5.1 | – | – | – |
| O=C(C1=C(O)/C(=C/c2ccc(O)c(Br)c2)CCC1)c1ccccc1 | inactive | Active | – | 4.7 | – | – |
